Publication PMC6277767, “Broad and Region-Specific Impacts of the Synthetic Cannabinoid CP 55,940 in Adolescent and Adult Female Mouse Brains” (Frontiers in Molecular Neuroscience, 2018)

Test system: CD1 female mouse brain lipidome
Test: Brain-region lipid levels (HPLC/MS/MS lipidomics) 2 h after single i.p. 3 mg/kg CP 55,940 vs vehicle
Format: in vivo
Design: N-arachidonoyl phenylalanine level, Mean / N-stearoyl tryptophan level, Mean / N-stearoyl proline level, Mean / N-stearoyl leucine level, Mean / N-stearoyl phenylalanine level, Mean / N-stearoyl serine level, Mean / N-stearoyl methionine level, Mean: unit: moles per gram
Procedure: The Bloomington Institutional Animal Care and Use Committee of Indiana University reviewed and approved the animal procedures. Female mice from the CD1 strain were utilized to match our study examining THC’s effects on the brain lipidome ([Leishman et al., 2018]). Mice were given a single i.p. injection of either 3 mg/kg CP or 1:1:18 cremophor:ethanol:saline vehicle (please refer to the section “3 mg/kg CP Is Relevant for Synthetic Cannabinoid Abuse and Has Stronger Effects on the Female Mouse Brain Lipidome During Adolescence” for a justification of dose and use of female mice). Three different age groups were given injections: PND 35 and PND 50 adolescents, and adult mice (PND 113). At least eight mice in each age group received CP and at least eight received vehicle. Matching the THC study time course ([Leishman et al., 2018]), mice were sacrificed via rapid decapitation 2 h after injection. Brains were immediately removed and flash-frozen in liquid nitrogen, and then stored at -80°C until dissections were performed. Brains were dissected on an ice-cold dissection plate into the following regions: STR, HIPP, CER, THAL, CTX, HYP, MID, and STEM. These abbreviations for these brain areas will be used exclusively when discussing the results generated by these specific dissections. Each dissected area was immediately placed in liquid nitrogen and then stored at -80°C until used for lipid extraction.
Tissue extracts were performed as previously described ([Bradshaw et al., 2006]; [Stuart et al., 2013]; [Raboune et al., 2014]; [Leishman et al., 2016a],[b], [2017], [2018]). First, samples were shock frozen in liquid nitrogen, weighed, and transferred to a centrifuge tube. The mass of the largest sample was multiplied by 50 to determine how many milliliters of HPLC-grade methanol (Fisher, Fair Lawn, NJ, United States) to add. Then, samples were spiked with 500 pmol deuterium-labeled NAGly (d8NAGly; Cayman Chemical, Ann Arbor, MI, United States). Samples were placed on ice in darkness for 2 h then individually homogenized and centrifuged at 19,000 × g for 20 min at 20°C. Supernatants were diluted with HPLC water (purified in house) to make a solution of 75% water, 25% supernatant. Lipids were partially purified on C18 solid phase extraction columns (Agilent, Palo Alto, CA, United States). A series of four elutions with 1.5 mL of 60%, 75%, 85%, and 100% methanol were collected ([Stuart et al., 2013]; [Leishman et al., 2016a],[b], [2018]).
As previously described ([Bradshaw et al., 2006]; [Tan et al., 2006]; [Smoum et al., 2010]; [Stuart et al., 2013]; [Tortoriello et al., 2013]; [Raboune et al., 2014]; [Leishman et al., 2016a],[b], [2017], [2018]), samples were analyzed using an Applied Biosystems API 3000 triple quadrupole mass spectrometer with electrospray ionization (Foster City, CA, United States). Using an Agilent XDB-C18 reversed phase analytical column and optimized mobile phase gradients, 20 μL from each elution were chromatographed. Two Shimadzu 10ADvp pumps (Columbia, MD, United States) provided the pressure for gradient elution. Mobile phase A: 20% methanol, 80% water (v/v) and 1 mM ammonium acetate (Sigma, St. Louis, MO, United States). Mobile phase B: 100% methanol, 1 mM ammonium acetate. Every method run began with 0% mobile phase B, reached 100% mobile phase B flowing at 0.2 mL/min, and gradually returned to 0% mobile phase B.
This screening library will be referred to as the lipidome when discussing data from this study. HPLC/MS/MS data were analyzed using Analyst software (Applied Biosystems) ([Bradshaw et al., 2006]; [Tan et al., 2006]; [Stuart et al., 2013]; [Tortoriello et al., 2013]; [Raboune et al., 2014]; [Leishman et al., 2016a],[b], [2017], [2018]). Chromatograms (Supplementary Figure 3) were generated by determining the retention time of analytes from the analytical column with a [M-1] or [M+1] parent peak and a fragmentation peak corresponding to the programmed values. […]

[1] = cerebellum, PND 35, 3 mg/kg CP 55,940
[2] = cerebellum, PND35 WT female mice, 3mg/kg CP 55,940
[3] = cortex, PND 50, 3 mg/kg CP 55,940

In the case of `CCCCCCC(C)(C)c1ccc([C@@H]2C[C@H](O)CC[C@H]2CCCO)c(O)c1` [CP 55,940], the “N-oleoyl phenylalanine: Magnitude (x Veh level)” value [1] is reported as 1.14 x Veh level, the “N-palmitoyl leucine: Direction (relative to Veh)” value [1] is reported as “↑” and the “N-palmitoyl leucine: Magnitude (x Veh level)” value [1] is reported as 1.52 x Veh level. The “N-palmitoyl phenylalanine: Direction (relative to Veh)” value [1] was “↑”, the “N-palmitoyl phenylalanine: Magnitude (x Veh level)” value [1] was 1.43 x Veh level and the “N-palmitoyl proline: Direction (relative to Veh)” value [1] was “↓”. The “N-palmitoyl proline: Magnitude (x Veh level)” value [1] was 0.87 x Veh level, the “N-palmitoyl serine: Direction (relative to Veh)” value [1] was “↓” and the “N-palmitoyl serine: Magnitude (x Veh level)” value [1] was 0.81 x Veh level. The “N-palmitoyl tyrosine: Direction (relative to Veh)” value [1] was “↑”, the “N-palmitoyl tyrosine: Magnitude (x Veh level)” value [1] was 1.19 x Veh level and the “N-palmitoyl valine: Direction (relative to Veh)” value [1] was “↑”. The “N-palmitoyl valine: Magnitude (x Veh level)” value [1] was 1.70 x Veh level, the “2-arachidonoyl glycerol level, Mean” value [2] was 2.68E-10 and the “2-linoleoyl glycerol level, Mean” value [2] was 1.01E-10. For the same compound, the “2-oleoyl glycerol level, Mean” value [2] was 7.55E-10, the “2-palmitoyl glycerol level, Mean” value [2] was 3.01E-10 and the “6-ketoPGF1α level, Mean” value [2] was 8.74E-12. For the same compound, the “11-OH-THC level, Mean” value [2] was “BDL”, the “11-nor-9-carboxyTHC level, Mean” value [2] was “BDL” and the “Arachidonic acid level, Mean” value [2] was 1.26E-09. The “Cannabidiol level, Mean” value [2] was “BDL”, the “Linoleic acid level, Mean” value [2] was 4.27E-10 and the “N- stearoyl valine level, Mean” value [2] was “PISSR”. The “N-arachidonoyl GABA level, Mean” value [2] was 9.02E-12, the “N-arachidonoyl alanine level, Mean” value [2] was 5.29E-12 and the “N-arachidonoyl dopamine level, Mean” value [2] was “BDL”. For the same compound, the “N-arachidonoyl ethanolamine level, Mean” value [2] was 1.17E-11, the “N-arachidonoyl glycine level, Mean” value [2] was 2.55E-11 and the “N-arachidonoyl methionine level, Mean” value [2] was 8.56E-13. For the same compound, the “N-arachidonoyl phenylalanine level, Mean” value [2] was 1.22E-12, the “N-arachidonoyl proline level, Mean” value [2] was “BDL” and the “N-arachidonoyl serine level, Mean” value [2] was 5.34E-12. For the same compound, the “N-arachidonoyl taurine level, Mean” value [2] was 7.17E-11, the “N-arachidonoyl tryptophan level, Mean” value [2] was “PISSR” and the “N-arachidonoyl tyrosine level, Mean” value [2] was 8.32E-13. For the same compound, the “N-docosahexaenoyl GABA level, Mean” value [2] was 2.27E-12, the “N-docosahexaenoyl alanine level, Mean” value [2] was 3.11E-12 and the “N-docosahexaenoyl ethanolamine level, Mean” value [2] was 2.05E-11. For the same compound, the “N-docosahexaenoyl glycine level, Mean” value [2] was 1.34E-11, the “N-docosahexaenoyl leucine level, Mean” value [2] was 7.43E-13 and the “N-docosahexaenoyl methionine level, Mean” value [2] was 5.43E-13. The “N-docosahexaenoyl phenylalanine level, Mean” value [2] was 1.05E-12, the “N-docosahexaenoyl proline level, Mean” value [2] was “BDL” and the “N-docosahexaenoyl serine level, Mean” value [2] was 2.79E-11. For the same compound, the “N-docosahexaenoyl tryptophan level, Mean” value [2] was “PISSR”, the “N-docosahexaenoyl tyrosine level, Mean” value [2] was 1.57E-12 and the “N-docosahexaenoyl valine level, Mean” value [2] was “BDL”. The “N-linoleoyl GABA level, Mean” value [2] was 7.16E-13, the “N-linoleoyl alanine level, Mean” value [2] was 1.26E-12 and the “N-linoleoyl ethanolamine level, Mean” value [2] was 2.95E-11. The “N-linoleoyl glycine level, Mean” value [2] was 3.27E-12, the “N-linoleoyl leucine level, Mean” value [2] was 3.65E-13 and the “N-linoleoyl methionine level, Mean” value [2] was “PISSR”. For the same compound, the “N-linoleoyl phenylalanine level, Mean” value [2] was 2.56E-13, the “N-linoleoyl proline level, Mean” value [2] was “BDL” and the “N-linoleoyl serine level, Mean” value [2] was 4.55E-11. The “N-linoleoyl tryptophan level, Mean” value [2] was “PISSR”, the “N-linoleoyl tyrosine level, Mean” value [2] was “PISSR” and the “N-linoleoyl valine level, Mean” value [2] was “BDL”. For the same compound, the “N-nervonoyl valine level, Mean” value [2] was “BDL”, the “N-oleoyl GABA level, Mean” value [2] was 3.82E-12 and the “N-oleoyl alanine level, Mean” value [2] was 6.55E-12. For the same compound, the “N-oleoyl dopamine level, Mean” value [2] was “BDL”, the “N-oleoyl ethanolamine level, Mean” value [2] was 7.98E-11 and the “N-oleoyl glycine level, Mean” value [2] was 1.52E-11. For the same compound, the “N-oleoyl leucine level, Mean” value [2] was 1.49E-12, the “N-oleoyl methionine level, Mean” value [2] was 1.2E-12 and the “N-oleoyl phenylalanine level, Mean” value [2] was 1.43E-12. The “N-oleoyl proline level, Mean” value [2] was 3.42E-13, the “N-oleoyl serine level, Mean” value [2] was 2.53E-10 and the “N-oleoyl tryptophan level, Mean” value [2] was 1.48E-13. For the same compound, the “N-oleoyl tyrosine level, Mean” value [2] was 7.24E-13, the “N-oleoyl valine level, Mean” value [2] was “PISSR” and the “N-palmitoyl GABA level, Mean” value [2] was 7.17E-12. For the same compound, the “N-palmitoyl alanine level, Mean” value [2] was 7.87E-12, the “N-palmitoyl ethanolamine level, Mean” value [2] was 3.88E-11 and the “N-palmitoyl glycine level, Mean” value [2] was 2.65E-11. The “N-palmitoyl leucine level, Mean” value [2] was 2.75E-12, the “N-palmitoyl methionine level, Mean” value [2] was 1.86E-12 and the “N-palmitoyl phenylalanine level, Mean” value [2] was 2.82E-12. The “N-palmitoyl proline level, Mean” value [2] was 7E-13, the “N-palmitoyl serine level, Mean” value [2] was 5.23E-11 and the “N-palmitoyl tryptophan level, Mean” value [2] was 3.12E-13. For the same compound, the “N-palmitoyl tyrosine level, Mean” value [2] was 1.58E-12, the “N-palmitoyl valine level, Mean” value [2] was 1.73E-13 and the “N-stearoyl GABA level, Mean” value [2] was 5.88E-12. For the same compound, the “N-stearoyl alanine level, Mean” value [2] was 1.31E-11, the “N-stearoyl ethanolamine level, Mean” value [2] was 1.11E-11 and the “N-stearoyl glycine level, Mean” value [2] was 1.37E-11. The “N-stearoyl leucine level, Mean” value [2] was 9.56E-13, the “N-stearoyl methionine level, Mean” value [2] was 1.59E-12 and the “N-stearoyl phenylalanine level, Mean” value [2] was 1.92E-12. For the same compound, the “N-stearoyl proline level, Mean” value [2] was 3.97E-13, the “N-stearoyl serine level, Mean” value [2] was 2.93E-11 and the “N-stearoyl tryptophan level, Mean” value [2] was 6.79E-13. The “N-stearoyl tyrosine level, Mean” value [2] was 8.44E-14, the “Oleic acid level, Mean” value [2] was 1.03E-09 and the “PGE2 level, Mean” value [2] was 4.01E-10. For the same compound, the “PhosphoLEA level, Mean” value [2] was 1.04E-11, the “THC level, Mean” value [2] was “BDL” and the “2-linoleoyl glycerol Direction (relative to Veh)” value [3] was “↓”. For the same compound, the “2-oleoyl glycerol, Direction (relative to Veh)” value [3] was “↓”.
